Eleven compounds from patent US20230248833A1, “COMPOUND HAVING BTK KINASE DEGRADING ACTIVITY, AND PREPARATION METHOD AND PHARMACEUTICAL USE THEREFOR” (SICHUAN HAISCO PHARMACEUTICAL CO., LTD., priority 2020, published 2023) can be followed below.

One series concerns SU-DHL-6 cells. Briefly: Inhibition of cell proliferation, SU-DHL-6 cells (Cell Viability Assay, 72 h). The format is cell-based, human. As to conditions: Homo sapiens, SU-DHL-6, 72 h. As for the experimental part:
(§1) SU-DHL-4, Mino, and SU-DHL-6 cells, in the culture medium of RPMI1640+10% FBS, were cultured in an incubator at 37° C. under 5% CO2. Cells were plated in a 96-well plate. Specifically, SU-DHL-4 cells were at 20000/well, Mino and SU-DHL-6 cells were at 5000/well, with 90 μL/well. 10 μL of the compounds at different concentrations were added to each well. There were 3 replicate wells for each concentration, and the last column, added with DMSO, was used as a vehicle control group. The cultures were continued for 72 hours at 37° C. under 5% CO2. After 72 hours, 100 μL of detection reagent (Cell Viability Assay, Promega, G7573) was added to each well, and the cultures were uniformly mixed for 2 minutes, and incubated at room temperature for 10 minutes. The […] signal value was measured with a microplate reader (PHERAstar FSX). The IC50 value of the compound on cell proliferation inhibition was calculated using origin9.2 software, and the inhibition rate at the highest concentration of the compound (Max inhi.%) was calculated according to formula (1).
(§2) Max inhi.%=(1−T72administration/T72vehicle)×100 Formula (1).

The nature of series [1]: Pharmacokinetic experiment in rats. The series is classed as in vivo. As to conditions: male, SD, rat, po, plasma; for AUC(0-t): single dose. The protocol:
Experimental objective: In this experiment, a single dose of each test compound was administered to SD rats intravenously and intragastrically, the concentrations of the test compound in plasma of rats were measured, and the pharmacokinetic characteristics and bioavailability of the test compound in rats were evaluated.
Experimental animals: Male SD rats, about 200 g, 6-8 weeks old, 6 rats/compound. Rats were purchased from Hunan SJA Laboratory Animal Co., Ltd, with the laboratory animal production license number of SCXK (Xiang) 2019-004.
Experimental method: On the day of the experiment, 6 SD rats were randomly grouped according to their body weight. The animals were fasted with water available for 12 to 14 hours one day before the administration of a test compound, and were fed 4 hours after the administration.
Before and after the administration, […] of blood was taken from the orbit of the rats under isoflurane anesthesia, and placed in an EDTAK2 centrifuge tube. Centrifugation was carried out at 5000 rpm at 4° C. for 10 min, and the plasma was collected.
Time points for sample collection in G1&G2 groups comprise
Before analysis and detection, all samples were stored at −80° C. The samples were detected by HPLC-MS/MS.

For the next series, the system named is Mino cells. Briefly: Inhibition of cell proliferation, Mino cells (Cell Viability Assay, 72 h). The series is classed as cell-based, human. To be noted: Homo sapiens, MINO, 72 h. As for the experimental part:
as §1, §2

Each structure is given as a SMILES string.

As usually defined, the IC50 is the concentration needed to halve the response being measured. Broadly, the AUC(0-t) is exposure summed from dosing to a finite time, without extrapolation to infinity. A higher AUC(0-t) goes with more exposure. `Nc1ncnc2c1c(-c1ccc(Oc3ccccc3)cc1)nn2[C@H]1CCN(C2CN(CC3CN(c4ccc5c(c4)C(=O)N(C4CCC(=O)NC4=O)C5=O)C3)C2)C[C@H]1F` (stereo partly drawn) [Compound 104, 5-(3-((3-((3R,4S)-4-(4-amino-3-(4-phenoxyphenyl)-1H-pyrazolo[3,4-d]pyrimidin-1-yl)-3-fluoropiperidin-1-yl)azetidin-1-yl)methyl)azetidin-1-yl)-2-(2,6-dioxopiperidin-3-yl)isoindoline-1,3-dione]: the results for the IC50 with SU-DHL-6 cells and with Mino cells were 23 nM and 16 nM, respectively. Besides, the AUC(0-t) in series [1] (i.g. (20 mg/kg)) was determined as 1320 ± 653 ng·h/mL.
In general, bioavailability refers to the share of a dose that reaches the circulation, judged against a reference dose that is usually intravenous. A higher bioavailability goes with good availability. Turning to `Nc1ncnc2c1c(-c1ccc(Oc3ccccc3)cc1)nn2C1CCN(C2CN(CC3CN(c4cc5c(cc4F)C(=O)N(C4CCC(=O)NC4=O)C5=O)C3)C2)CC1` (stereo not shown) [Compound 106, 5-(3-((3-(4-(4-amino-3-(4-phenoxyphenyl)-1H-pyrazolo[3,4-d]pyrimidin-1-yl)piperidin-1-yl)azetidin-1-yl)methyl)azetidin-1-yl)-2-(2,6-dioxopiperidin-3-yl)-6-fluoroisoindoline-1,3-dione], the IC50 in the series on SU-DHL-6 cells was 95 nM; in the series on Mino cells, 119 nM. This compound also gave a bioavailability in series [1] (i.g. (20 mg/kg), bioavailability) of 14.4 ± 3.3%. Besides, the AUC(0-t) in series [1] (i.g. (20 mg/kg)) worked out at 3210 ± 728 ng·h/mL.
As to `Nc1ncnc2c1c(-c1ccc(Oc3ccccc3)cc1)nn2[C@@H]1CCN(C2CN(CC3CN(c4ccc5c(c4)C(=O)N(C4CCC(=O)NC4=O)C5=O)C3)C2)C[C@@H]1F` (stereo partly drawn) [Compound 110, 5-(3-((3-((3S,4R)-4-(4-amino-3-(4-phenoxyphenyl)-1H-pyrazolo[3,4-d]pyrimidin-1-yl)-3-fluoropiperidin-1-yl)azetidin-1-yl)methyl)azetidin-1-yl)-2-(2,6-dioxopiperidin-3-yl)isoindoline-1,3-dione], the IC50 with SU-DHL-6 cells was 31 nM; in the series on Mino cells, 35 nM. Moreover, the AUC(0-t) in series [1] (i.g. (20 mg/kg)) worked out at 614 ± 125 ng·h/mL.
For the compound `Nc1ncnc2c1c(-c1ccc(Oc3ccccc3)cc1)nn2[C@@H]1CCN(C2CN(CC3CN(c4ccc5c(c4)C(=O)N(C4CCC(=O)NC4=O)C5=O)C3)C2)C[C@H]1F` (stereo partly drawn) [Compound 111, 5-(3-((3-((3R,4R)-4-(4-amino-3-(4-phenoxyphenyl)-1H-pyrazolo[3,4-d]pyrimidin-1-yl)-3-fluoropiperidin-1-yl)azetidin-1-yl)methyl)azetidin-1-yl)-2-(2,6-dioxopiperidin-3-yl)isoindoline-1,3-dione], the IC50 in the series with SU-DHL-6 cells came to 23 nM; in the series on Mino cells it was 50 nM. The compound further gave an AUC(0-t) in series [1] (i.g. (20 mg/kg)) of 753 ± 261 ng·h/mL.
In the case of `Nc1ncnc2c1c(-c1ccc(Oc3ccccc3)cc1)nn2[C@H]1CCN(C2CN(CC3CN(c4ccc5c(c4)C(=O)N(C4CCC(=O)NC4=O)C5=O)C3)C2)C[C@@H]1F` (stereo partly drawn) [Compound 112, 5-(3-((3-((3S,4S)-4-(4-amino-3-(4-phenoxyphenyl)-1H-pyrazolo[3,4-d]pyrimidin-1-yl)-3-fluoropiperidin-1-yl)azetidin-1-yl)methyl)azetidin-1-yl)-2-(2,6-dioxopiperidin-3-yl)isoindoline-1,3-dione], the IC50 with SU-DHL-6 cells was found to be 36 nM; with Mino cells it was 39 nM. This compound also returned an AUC(0-t) in series [1] (i.g. (20 mg/kg)) of 1780 ± 663 ng·h/mL.
In the case of `Nc1ncnc2c1c(-c1ccc(Oc3ccccc3)cc1)nn2[C@H]1CCN(C2CN(CC3CN(c4cc5c(cc4F)C(=O)N(C4CCC(=O)NC4=O)C5=O)C3)C2)C[C@H]1F` (stereo partly drawn) [Compound 114, 5-(3-((3-((3R,4S)-4-(4-amino-3-(4-phenoxyphenyl)-1H-pyrazolo[3,4-d]pyrimidin-1-yl)-3-fluoropiperidin-1-yl)azetidin-1-yl)methyl)azetidin-1-yl)-2-(2,6-dioxopiperidin-3-yl)-6-fluoroisoindoline-1,3-dione], the results for the IC50 in the series on SU-DHL-6 cells and with Mino cells were 24 nM and 66 nM, respectively. For the same compound, the AUC(0-t) in series [1] (i.g. (20 mg/kg)) worked out at 2670 ± 738 ng·h/mL.
As to `Nc1ncnc2c1c(-c1ccc(Oc3ccccc3)cc1)nn2C1CCN(C2CN(CC3(F)CN(c4ccc5c(c4)C(=O)N(C4CCC(=O)NC4=O)C5=O)C3)C2)CC1` (stereo not shown) [Compound 116, 5-(3-((3-(4-(4-amino-3-(4-phenoxyphenyl)-1H-pyrazolo[3,4-d]pyrimidin-1-yl)piperidin-1-yl)azetidin-1-yl)methyl)-3-fluoroazetidin-1-yl)-2-(2,6-dioxopiperidin-3-yl)isoindoline-1,3-dione], the IC50 with SU-DHL-6 cells was found to be 52 nM; in the series with Mino cells, 29 nM. The same compound yielded an AUC(0-t) in series [1] (i.g. (20 mg/kg)) of 4440 ± 544 ng·h/mL.
With `Nc1ncnc2c1c(-c1ccc(Oc3ccccc3)cc1)nn2C1CCN(C2CN(CC3(F)CCN(c4cc5c(cc4F)C(=O)N(C4CCC(=O)NC4=O)C5=O)CC3)C2)CC1` (stereo not shown) [Compound 117, 5-(4-((3-(4-(4-amino-3-(4-phenoxyphenyl)-1H-pyrazolo[3,4-d]pyrimidin-1-yl)piperidin-1-yl)azetidin-1-yl)methyl)-4-fluoropiperidin-1-yl)-2-(2,6-dioxopiperidin-3-yl)-6-fluoroisoindoline-1,3-dione], the IC50 is 98 nM in the series on SU-DHL-6 cells and 119 nM in the series on Mino cells. The compound also returned an AUC(0-t) in series [1] (i.g. (20 mg/kg)) of 2280 ± 64 ng·h/mL.
As to `Nc1ncnc2c1c(-c1ccc(Oc3ccccc3)cc1)nn2C1CCN(C2CN(CC3(F)CCN(c4ccc5c(c4)C(=O)N(C4CCC(=O)NC4=O)C5=O)CC3)C2)CC1` (stereo not shown) [Compound 118, 5-(4-((3-(4-(4-amino-3-(4-phenoxyphenyl)-1H-pyrazolo[3,4-d]pyrimidin-1-yl)piperidin-1-yl)azetidin-1-yl)methyl)-4-fluoropiperidin-1-yl)-2-(2,6-dioxopiperidin-3-yl)isoindoline-1,3-dione], the IC50 was determined as 50 nM in the series on SU-DHL-6 cells and 52 nM in the series with Mino cells. The compound also yielded an AUC(0-t) in series [1] (i.g. (20 mg/kg)) of 2080 ± 985 ng·h/mL.
On to `Nc1ncnc2c1c(-c1ccc(Oc3ccccc3)cc1)nn2C1CCN(C2CN(CC3CCN(c4ccc5c(c4)C(=O)N(C4CCC(=O)NC4=O)C5=O)CC3)C2)CC1` (stereo not shown) [Trifluoroacetate of compound 98, 5-(4-((3-(4-(4-amino-3-(4-phenoxyphenyl)-1H-pyrazolo[3,4-d]pyrimidin-1-yl)piperidin-1-yl)azetidin-1-yl)methyl)piperidin-1-yl)-2-(2,6-dioxopiperidin-3-yl)isoindoline-1,3-dione], for which the IC50 with SU-DHL-6 cells was 12 nM; with Mino cells it was 20 nM. In addition, the AUC(0-t) in series [1] (i.g. (20 mg/kg)) came to 347 ± 55 ng·h/mL.
Take `Nc1ncnc2c1c(-c1ccc(Oc3ccccc3)cc1)nn2C1CCN(C2CN(CC3CCN(c4ccc5c(c4)C(=O)N(C4CCC(=O)NC4=O)C5=O)C3)C2)CC1` (stereo not shown) [Trifluoroacetate of compound 99, 5-(3-((3-(4-(4-amino-3-(4-phenoxyphenyl)-1H-pyrazolo[3,4-d]pyrimidin-1-yl)piperidin-1-yl)azetidin-1-yl)methyl)pyrrolidine-1-yl)-2-(2,6-dioxopiperidin-3-yl)isoindoline-1,3-dione]: the IC50 was determined as 24 nM in the series on SU-DHL-6 cells and 21 nM in the series on Mino cells. This compound returned an AUC(0-t) in series [1] (i.g. (5 mg/kg)) of 504 ± 131 ng·h/mL.
